The values below come from patent US20260191933A1, “PHARMACEUTICAL COMBINATIONS AND USES THEREOF” (The University of Melbourne, priority 2022, published 2026).

Assay [1] relates to mixed CSPGs (aggrecan, neurocan, phosphacan and versican). Description: CSPG-ECM binding assay, mixed CSPGs.
Method: (§1) To determine the interaction of insulin with CSPG-ECM components in vitro, flat-bottom 96-well plates were first coated with 10 μg/ml poly-L-lysine overnight, followed by a rinsing with water. A purified CSPGs mix containing neurocan, phosphacan, versican and aggrecan (CC117, Merck Millipore, MA), purified aggrecan (A1960, Merck Millipore, MA) or purified chondroitin 4-sulfate (59004, Selleck Chemicals, TX), were coated onto the 96-well plates at a concentration of 10 μg/ml for 4 h at RT, followed by a rinse with water. Insulin-FITC was incubated on plates containing ECM at concentrating ranging from 5 ng/ml-1 mg/ml for 2 h at RT and protected from light. Control wells contained either no ECM, bovine serum albumin (10 μg/ml) or poly-L-lysine alone. Wells were washed 3 times with water and imaged at 495 nm using a SPECTROstar Nano Microplate Reader (BMG Labtech, Germany). To digest CSPG-ECM or to negate CSPG-ECM negative charge. wells were incubated with either chABC (0.5 U/ml) or poly-1-arginine (10 μg/ml, P7762, Merck Millipore, MA) for 1 h at 37° C. after the ECM coating, washed 3 times with water and then incubated with insulin-FITC.
The target in a further assay is T1, aggrecan (Bos taurus, UniProt P13608).
T1 construct: purchased Merck Millipore A1960
The assay can be described thus: CSPG-ECM binding assay, aggrecan. The conditions noted are these: plates coated with aggrecan, 2-hours.

A further assay deals with chondroitin 4-sulfate. The assay can be described thus: CSPG-ECM binding assay, chondroitin 4-sulfate. To be noted: plates coated with chondroitin 4-sulfate (C4S), 2-hours.

T1 sequence (P13608 17-2364): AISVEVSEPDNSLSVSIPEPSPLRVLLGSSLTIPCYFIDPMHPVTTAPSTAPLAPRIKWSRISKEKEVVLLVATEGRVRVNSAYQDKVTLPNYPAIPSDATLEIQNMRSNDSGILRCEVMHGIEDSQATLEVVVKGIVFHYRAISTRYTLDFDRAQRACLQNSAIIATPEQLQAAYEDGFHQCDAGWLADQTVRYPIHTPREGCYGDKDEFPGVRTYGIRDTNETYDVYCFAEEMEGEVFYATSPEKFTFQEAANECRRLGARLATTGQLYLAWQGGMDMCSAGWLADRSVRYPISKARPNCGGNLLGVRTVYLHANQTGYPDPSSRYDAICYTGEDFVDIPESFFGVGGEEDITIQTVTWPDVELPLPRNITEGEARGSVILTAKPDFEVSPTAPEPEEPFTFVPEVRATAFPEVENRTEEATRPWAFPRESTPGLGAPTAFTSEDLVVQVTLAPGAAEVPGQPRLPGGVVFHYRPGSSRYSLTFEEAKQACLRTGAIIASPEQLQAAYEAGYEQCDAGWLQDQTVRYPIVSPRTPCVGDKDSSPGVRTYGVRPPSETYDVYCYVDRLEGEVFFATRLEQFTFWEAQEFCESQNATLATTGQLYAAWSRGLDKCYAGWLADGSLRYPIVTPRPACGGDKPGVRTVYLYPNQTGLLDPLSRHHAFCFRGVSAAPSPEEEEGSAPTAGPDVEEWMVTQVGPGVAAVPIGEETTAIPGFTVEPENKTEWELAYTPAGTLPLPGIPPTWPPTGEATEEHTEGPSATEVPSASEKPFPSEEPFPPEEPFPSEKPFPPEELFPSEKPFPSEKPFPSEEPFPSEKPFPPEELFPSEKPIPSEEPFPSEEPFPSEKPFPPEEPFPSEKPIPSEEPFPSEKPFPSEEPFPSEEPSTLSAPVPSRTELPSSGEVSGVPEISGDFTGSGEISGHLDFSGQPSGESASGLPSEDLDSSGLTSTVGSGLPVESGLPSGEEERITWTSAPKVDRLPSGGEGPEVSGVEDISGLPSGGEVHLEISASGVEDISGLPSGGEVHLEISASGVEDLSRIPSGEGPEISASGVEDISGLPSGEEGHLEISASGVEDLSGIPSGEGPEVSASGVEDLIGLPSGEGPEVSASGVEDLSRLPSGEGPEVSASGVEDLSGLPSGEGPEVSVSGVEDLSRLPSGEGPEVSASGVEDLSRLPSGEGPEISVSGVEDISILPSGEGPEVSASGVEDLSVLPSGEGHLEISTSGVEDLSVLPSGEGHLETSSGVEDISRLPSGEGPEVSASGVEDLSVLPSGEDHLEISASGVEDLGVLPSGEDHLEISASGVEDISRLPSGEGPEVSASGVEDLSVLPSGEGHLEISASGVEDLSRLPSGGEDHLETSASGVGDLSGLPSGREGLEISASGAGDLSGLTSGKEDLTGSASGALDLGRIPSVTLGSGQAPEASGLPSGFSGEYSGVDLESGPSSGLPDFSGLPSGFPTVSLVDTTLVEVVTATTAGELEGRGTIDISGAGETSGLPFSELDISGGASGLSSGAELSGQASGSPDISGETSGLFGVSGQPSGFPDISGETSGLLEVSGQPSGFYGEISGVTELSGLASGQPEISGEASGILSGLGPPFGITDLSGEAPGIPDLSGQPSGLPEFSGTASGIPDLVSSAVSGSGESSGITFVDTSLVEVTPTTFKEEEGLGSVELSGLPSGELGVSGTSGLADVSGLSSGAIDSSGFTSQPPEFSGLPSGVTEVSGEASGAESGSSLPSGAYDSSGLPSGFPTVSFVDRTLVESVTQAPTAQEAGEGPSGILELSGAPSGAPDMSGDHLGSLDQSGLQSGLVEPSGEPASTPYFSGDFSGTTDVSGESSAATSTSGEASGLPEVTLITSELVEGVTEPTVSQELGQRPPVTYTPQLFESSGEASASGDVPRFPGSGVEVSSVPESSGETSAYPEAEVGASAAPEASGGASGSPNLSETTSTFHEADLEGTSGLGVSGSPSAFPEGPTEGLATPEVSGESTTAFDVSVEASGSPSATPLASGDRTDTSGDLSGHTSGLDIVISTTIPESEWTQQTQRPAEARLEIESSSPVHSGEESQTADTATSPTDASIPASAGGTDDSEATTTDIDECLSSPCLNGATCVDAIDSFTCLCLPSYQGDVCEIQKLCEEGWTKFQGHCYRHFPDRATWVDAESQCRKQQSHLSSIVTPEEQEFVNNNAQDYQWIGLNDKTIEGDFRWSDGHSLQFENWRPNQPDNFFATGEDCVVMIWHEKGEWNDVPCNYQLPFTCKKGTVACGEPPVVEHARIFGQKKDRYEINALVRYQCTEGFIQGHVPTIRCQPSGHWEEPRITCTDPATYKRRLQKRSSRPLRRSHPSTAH
Method for chondroitin 4-sulfate: as §1

Regarding “insulin-FITC: fluorescein isothiocyanate tagged insulin”, the “binding of insulin-FITC” value in assay [1] (plates coated with mixed CSPGs, 2-hours) is “specific dose-dependent binding”; with aggrecan it was “specific dose-dependent binding”; in the assay with chondroitin 4-sulfate it was “specific dose-dependent binding”.

On to poly-arginine, for which, in assay [1] (CSPG mix, in the presence of poly-arginine), the insulin-ECM interactions result is reported as “significantly reduced”.
